According to US7718385B2, “Bioactivation of alkylating agents for cancer treatment” (priority 2003, dated 2010):

Columns and labels:
recombinant rat AOR = recombinant rat AOR (Rattus norvegicus, UniProt P97584, Q160G/Q263G/Q264G/Q276G)
Method: Varied concentrations of illudin M were added to a 200 μl 0.5× phosphate buffered saline (PBS) solution containing 115 ng of AOR and 43.4 nmoles NADPH, and incubated for 1 minute at 37° C. Reactions were then extracted with ethyl acetate containing piperine (internal standard), dried under vacuum, resuspended in HPLC buffer A (60% acetonitrile: 40% water), and injected into a Hewlett-Packard 1050 HPLC system equipped with a Luna C18 column (Phenomenex Inc.). Metabolites were separated using buffer A at a flow rate of 1 ml/min and quantified using diode array detection at 205 nm and previously reported extinction coefficients (Tanaka, et al., 1990). Vmax and Km were calculated using the HYPER program.
Rates were quantified from metabolite peak areas using reported extinction coefficients (Tanaka, et al., 1990; McMorris, et al., 1999).

NCI-H460 = conditions: NCI-H460, Non-Small Cell Lung; cited from earlier work
CCRF-CEM = conditions: cited from earlier work
K-562 = conditions: K-562, Leukemia, cited from earlier work
HOP-92 = conditions: HOP-92, Non-Small Cell Lung, cited from earlier work
NCI-H23 = conditions: NCI-H23, Non-Small Cell Lung, cited from earlier work
HT29 = conditions: HT29, Colon, cited from earlier work
KM12 = conditions: KM12, Colon, cited from earlier work
SNB-19 = conditions: SNB-19, Central Nervous System, cited from earlier work
SNB-75 = conditions: SNB-75, Central Nervous System, cited from earlier work
LOX IMVI = conditions: cited from earlier work
MALME-3M = conditions: cited from earlier work
M14 = conditions: M14, Melanoma, cited from earlier work
SK-MEL-28 = conditions: SK-MEL-28, Melanoma, cited from earlier work
OVCAR-3 = conditions: OVCAR-3, Ovarian, cited from earlier work
OVCAR-8 = conditions: OVCAR-8, Ovarian, cited from earlier work
SK-OV-3 = conditions: SK-OV-3, Ovarian, cited from earlier work
CAKI-1 = conditions: CAKI-1, Renal, cited from earlier work
PC-3 = conditions: PC-3, Prostate, cited from earlier work
DU-145 = conditions: DU-145, Prostate, cited from earlier work
MDA-MB 435 = conditions: MDA-MB 435, Breast, cited from earlier work

Chain of recombinant rat AOR (P97584 whole entry Q160G/Q263G/Q264G/Q276G): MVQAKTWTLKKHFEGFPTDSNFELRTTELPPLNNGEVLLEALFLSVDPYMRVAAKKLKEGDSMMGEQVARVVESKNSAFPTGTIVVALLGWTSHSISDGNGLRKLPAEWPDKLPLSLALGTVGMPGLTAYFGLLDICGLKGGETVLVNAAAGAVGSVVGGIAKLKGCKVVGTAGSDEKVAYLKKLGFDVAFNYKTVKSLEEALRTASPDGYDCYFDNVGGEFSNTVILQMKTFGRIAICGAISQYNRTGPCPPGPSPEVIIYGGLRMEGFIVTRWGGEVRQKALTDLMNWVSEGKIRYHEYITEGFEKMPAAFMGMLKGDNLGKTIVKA

## CC1=C(CO)C2=C(C)C3(CC3)[C@@](C)(O)C(=O)C2=C1 [Irofulven, 6-hydroxymethylacylfulvene]
Recombinant rat AOR
  Vmax: 275 nmol/min/mg
Recombinant rat AOR; relative to the illudins
  decrease in the rate of metabolism by AOR: 100 fold
NCI-H460
  GI50: 50.1 nM
  TGI: 2.51E−07
  log(GI50): −7.3
  log(TGI): −6.6
CCRF-CEM; Leukemia
  GI50: 2000 nM
  TGI: 3.16E−05
  log(GI50): −5.7
  log(TGI): −4.5
CCRF-CEM; read-out: LC50, Leukemia
  CC50: ≥ 100000 nM
K-562
  GI50: 3160 nM
  TGI: 1.00E−04
  log(GI50): −5.5
  log(TGI): −4
K-562; read-out: LC50
  CC50: ≥ 100000 nM
HOP-92
  GI50: 316 nM
  TGI: 6.31E−07
  log(GI50): −6.5
  log(LC50): −4.6
  log(TGI): −6.2
HOP-92; read-out: LC50
  CC50: 25100 nM
NCI-H23
  GI50: 79.4 nM
  TGI: 3.16E−07
  log(GI50): −7.1
  log(LC50): −6.1
  log(TGI): −6.5
NCI-H23; read-out: LC50
  CC50: 794 nM
HT29
  GI50: 251 nM
  TGI: 1.26E−06
  log(GI50): −6.6
  log(TGI): −5.9
HT29; read-out: LC50
  CC50: ≥ 100000 nM
KM12
  GI50: 631 nM
  TGI: 2.51E−06
  log(GI50): −6.2
  log(LC50): −4.9
  log(TGI): −5.6
KM12; read-out: LC50
  CC50: 12600 nM
SNB-19
  GI50: 316 nM
  TGI: 1.00E−05
  log(GI50): −6.5
  log(LC50): −4.2
  log(TGI): −5
SNB-19; read-out: LC50
  CC50: 63100 nM
SNB-75
  GI50: 200 nM
  TGI: 5.01E−07
  log(GI50): −6.7
  log(LC50): −5.7
  log(TGI): −6.3
SNB-75; read-out: LC50
  CC50: 2000 nM
LOX IMVI; Melanoma
  GI50: 631 nM
  TGI: 3.16E−06
  log(GI50): −6.2
  log(LC50): −4.4
  log(TGI): −5.5
LOX IMVI; read-out: LC50, Melanoma
  CC50: 39800 nM
MALME-3M; Melanoma
  GI50: 200 nM
  TGI: 5.01E−07
  log(GI50): −6.7
  log(LC50): −5.6
  log(TGI): −6.3
MALME-3M; read-out: LC50, Melanoma
  CC50: 2510 nM
M14
  GI50: 251 nM
  TGI: 6.31E−07
  log(GI50): −6.6
  log(LC50): −5.7
  log(TGI): −6.2
M14; read-out: LC50
  CC50: 2000 nM
SK-MEL-28
  GI50: 631 nM
  TGI: 1.58E−06
  log(GI50): −6.2
  log(LC50): −4.7
  log(TGI): −5.8
SK-MEL-28; read-out: LC50
  CC50: 20000 nM
OVCAR-3
  GI50: 251 nM
  TGI: 6.31E−07
  log(GI50): −6.6
  log(TGI): −6.2
OVCAR-3; read-out: LC50
  CC50: ≥ 100000 nM
OVCAR-8
  GI50: 200 nM
  TGI: 6.31E−07
  log(GI50): −6.7
  log(LC50): −5
  log(TGI): −6.2
OVCAR-8; read-out: LC50
  CC50: 10000 nM
SK-OV-3
  GI50: 251 nM
  TGI: 1.00E−06
  log(GI50): −6.6
  log(LC50): −5
  log(TGI): −6
SK-OV-3; read-out: LC50
  CC50: 10000 nM
CAKI-1
  GI50: 251 nM
  TGI: 7.94E−07
  log(GI50): −6.6
  log(LC50): −4.3
  log(TGI): −6.1
CAKI-1; read-out: LC50
  CC50: 50100 nM
PC-3
  GI50: 251 nM
  TGI: 1.26E−06
  log(GI50): −6.6
  log(LC50): −4.5
  log(TGI): −5.9
PC-3; read-out: LC50
  CC50: 31600 nM
DU-145
  GI50: 100 nM
  TGI: 2.00E−07
  log(GI50): −7
  log(TGI): −6.7
DU-145; read-out: LC50
  CC50: ≥ 100000 nM
MDA-MB 435
  GI50: 1580 nM
  TGI: 6.31E−06
  log(GI50): −5.8
  log(LC50): −4.4
  log(TGI): −5.2
MDA-MB 435; read-out: LC50
  CC50: 39800 nM
